# Data taken from patent US7012068B2, “Co-administration of a polysaccharide with a chemotherapeutic agent for the treatment of cancer” (Pro-Pharmaceuticals, Inc., priority 2001, dated 2006).
# Values joined by “and” are separate entries in the source; they are usually repeats but may differ in a detail not shown here. Identical values can stand only once. Like-named read-outs stand apart in the source and are kept apart here.
# Legend:
# mice = conditions: cited from earlier work
# Albino Swiss mice [1] = conditions: 17 days
# [2] = tested on: COLO 205 human colon tumor; conditions: for Animals died, Total: over 8 weeks (incl. sacrificed); for Mean survival time: parametric models and stratified Kaplan-Meier estimation
# Albino Swiss mice [3] = conditions: single i.v. LD50 dose of Adriamycin with or without galactomannan, 14 days
# Experimental: Acute systemic toxicity of the anti-tumor drug adriamycin in the presence and absence of mannan was evaluated in Albino Swiss mice. Mice were bred as described Example 1. Experimental procedures followed approved governmental guidelines as described in Example 1.
# A single dose intravenous injection of the adriamycin alone or adriamycin together with galactomannan preparations was provided via the tail vein at a dose of 0.5 mL/mouse at the doses described below in (1)-(3) and observed for clinical signs immediately after injection, and daily for the duration of the study.
# There were a total of 3 groups of 5 animals each. The groups were as follows: 1) 0.9% NaCl only, 2) Adriamycin only (1.1 mg/mL) and Adriamycin (1.1 mg/mL)+galactomannan (7.2mg/mL).
# 0.9% NaCl was used as a diluent. Animals were weighed prior to injection and at the end of the observation period. Animals surviving at the end of the study were sacrificed by carbon dioxide inhalation.
# The ability of galactomannan to reduce the toxicity of LD50 dosed of Adriamycin was measured by presence or absence of mortality in animals injected with the combination of Adriamycin and the particular polysaccharide.
# [4] = 1 week after treatment initiation, q4d × 3, 5-FU 75 mg/kg, GM 120 mg/kg
# [5] = 1 week after treatment initiation, q4d × 3, 5-FU 75 mg/kg, GM 120 mg/kg, 10 mice per group
# [6] = 2 weeks after treatment initiation, q4d × 3, 5-FU 75 mg/kg, GM 120 mg/kg
# [7] = 2 weeks after treatment initiation, q4d × 3, 5-FU 75 mg/kg, GM 120 mg/kg, 10 mice per group
# [8] = 3 weeks after treatment initiation, q4d × 3, 5-FU 75 mg/kg, GM 120 mg/kg
# [9] = 3 weeks after treatment initiation, q4d × 3, 5-FU 75 mg/kg, GM 120 mg/kg, 10 mice per group
# [10] = 4 weeks (28 days) after treatment initiation, q4d × 3, 5-FU 75 mg/kg, GM 120 mg/kg
# [11] = 4 weeks after treatment initiation, q4d × 3, 5-FU 75 mg/kg, GM 120 mg/kg, 10 mice per group
# [12] = 5 weeks (35 days) after treatment initiation, q4d × 3, 5-FU 75 mg/kg, GM 120 mg/kg
# [13] = 5 weeks after treatment initiation, q4d × 3, 5-FU 75 mg/kg, GM 120 mg/kg, 10 mice per group
# [14] = 6 weeks after treatment initiation (incl. sacrificed), q4d × 3, 5-FU 75 mg/kg, GM 120 mg/kg, 10 mice per group
# [15] = 6 weeks after treatment initiation, q4d × 3, 5-FU 75 mg/kg, GM 120 mg/kg
# [16] = 7 weeks after treatment initiation (incl. sacrificed), q4d × 3, 5-FU 75 mg/kg, GM 120 mg/kg, 10 mice per group
# [17] = 7 weeks after treatment initiation, q4d × 3, 5-FU 75 mg/kg, GM 120 mg/kg
# [18] = 8 weeks after treatment initiation (incl. sacrificed), q4d × 3, 5-FU 75 mg/kg, GM 120 mg/kg, 10 mice per group
# [19] = Day 0 after treatment initiation, q4d × 3, 5-FU 75 mg/kg, GM 120 mg/kg
# [20] = Day 3 after treatment initiation, q4d × 3, 5-FU 75 mg/kg, GM 120 mg/kg
# [21] = i.v. q4d × 3, 5-FU 75 mg/kg, GM 120 mg/kg
# [22] = i.v. q4d × 3, 5-FU 75 mg/kg, GM 120 mg/kg, 10 mice per group
# [23] = q4d × 3, 5-FU 75 mg/kg, GM 120 mg/kg, 10 mice per group
# [24] = q4d × 3, 5-FU 75 mg/kg, GM 120 mg/kg
# [25] = GM 60 mg/kg q1d × 5, 10 mice per group
compound,measurement,setting,value
"O=c1[nH]cc(F)c(=O)[nH]1 [5-FU, 5-fluorouracil, reference compound]",LD50,"mice; 5-FU, single dose in mice, Physician's Desk Reference 48th Edition",340 mg/kg
same,death rate (mice dying / mice in group),Albino Swiss mice [1]; single i.v. 5-FU 420 mg/kg with or without galactomannan,3/5
same,Median tumor weight,[2]; [4],198 mg
same,Animals died,[2]; [5],1
same,Median tumor weight,[2]; [6],245 mg
same,Animals died,[2]; [7],2
same,Median tumor weight,[2]; [8],352 mg
same,Animals died,[2]; [9],0
same,Median tumor weight,[2]; [10],527 mg
same,Animals died,[2]; [11],0
same,deaths out of ten mice within 10 days after the treatment initiation,"[2]; 5-FU 375 mg/kg/dose q4d×3, alone or with galactomannan 120 mg/kg/dose",nine
same,Median tumor weight,[2]; [12],990 mg
same,Animals died,[2]; [13],1
same,Animals died,[2]; [14],0
same,Median tumor weight,[2]; [15],1345 mg
same,Animals died,[2]; [16],0
same,Median tumor weight,[2]; [17],1881 mg
same,Animals died,[2]; [18],1
same,Median tumor weight,[2]; [19],101 mg
same,Median tumor weight,[2]; [20],135 mg
same,Median days to 2× doubling of tumor weight,[2]; [21],23.7 days
same,Animals with small tumors (20% and less) compared to median of untreated after 4-8 weeks of treatment,[2]; [22],1
same,treatment-related (nonspecific) deaths within two weeks,"[2]; out of ten mice, q4d×3, 5-FU 75 mg/kg/dose, galactomannan 120 mg/kg/dose",three
same,"Animals died, Total",[2]; [23],5
same,Mean survival time,[2]; [24],23.7 days
"COc1cccc2c1C(=O)c1c(O)c3c(c(O)c1C2=O)C[C@@](O)(C(=O)CO)C[C@@H]3O[C@H]1C[C@H](N)[C@H](O)[C@H](C)O1 [Adriamycin, doxorubicin]",LD50,"mice; Adriamycin, i.v. in mice, The Merck Index, 12th Edition",21.1 mg/kg
same,mortality (mice died / mice in group),Albino Swiss mice [3],Three out of 5 and 3 out of 5
same,mortality (mice died / mice in group),Albino Swiss mice [3]; listed as adriamycin,3/5
galactomannan [GM],Signs of Toxicity (summary of clinical observations),"Albino Swiss mice [1]; individual male mouse, single i.v. 0.5 mL/mouse: 5-FU 17 mg/mL, GM 4.73 mg/mL, 5-FU 17 mg/mL + GM 9.06 mg/mL",None
same,Median tumor weight,"[2]; 1 week after treatment initiation, GM 60 mg/kg q1d × 5",216 mg
same,Animals died,"[2]; 1 week after treatment initiation, GM 60 mg/kg q1d × 5, 10 mice",1
same,Median tumor weight,[2]; [4],258 mg
same,Animals died,[2]; [5],0
same,Median tumor weight,"[2]; 2 weeks after treatment initiation, GM 60 mg/kg q1d × 5",319 mg
same,Animals died,"[2]; 2 weeks after treatment initiation, GM 60 mg/kg q1d × 5, 10 mice",0
same,Median tumor weight,[2]; [6],320 mg
same,Animals died,[2]; [7],0
same,Median tumor weight,"[2]; 3 weeks after treatment initiation, GM 60 mg/kg q1d × 5",512 mg
same,Animals died,"[2]; 3 weeks after treatment initiation, GM 60 mg/kg q1d × 5, 10 mice",0
same,Median tumor weight,[2]; [8],629 mg
same,Animals died,[2]; [9],0
same,Median tumor weight,[2]; [10],959 mg
same,Median tumor weight,"[2]; 4 weeks after treatment initiation, GM 60 mg/kg q1d × 5",690 mg
same,Animals died,"[2]; 4 weeks after treatment initiation, GM 60 mg/kg q1d × 5, 10 mice",1
same,Animals died,[2]; [11],0
same,Median tumor weight,[2]; [12],1692 mg
same,Median tumor weight,"[2]; 5 weeks after treatment initiation, GM 60 mg/kg q1d × 5",1116 mg
same,Animals died,"[2]; 5 weeks after treatment initiation, GM 60 mg/kg q1d × 5, 10 mice",0
same,Animals died,[2]; [13],0
same,Animals died,[2]; [14],1
same,Median tumor weight,"[2]; 6 weeks after treatment initiation, GM 60 mg/kg q1d × 5",1421 mg
same,Animals died,"[2]; 6 weeks after treatment initiation, GM 60 mg/kg q1d × 5, 10 mice",0
same,Median tumor weight,[2]; [15],1690 mg
same,Animals died,"[2]; 7 weeks after treatment initiation (incl. sacrificed), GM 60 mg/kg q1d × 5, 10 mice",1
same,Animals died,[2]; [16],0
same,Median tumor weight,"[2]; 7 weeks after treatment initiation, GM 60 mg/kg q1d × 5",1152 mg
same,Median tumor weight,[2]; [17],1764 mg
same,Median tumor weight,"[2]; 8 weeks (56 days) after treatment initiation, GM 60 mg/kg q1d × 5",1152 mg
same,Median tumor weight,"[2]; 8 weeks (56 days) after treatment initiation, q4d × 3, 5-FU 75 mg/kg, GM 120 mg/kg",1813 mg
same,Animals died,[2]; [18],1
same,Animals died,"[2]; 8 weeks after treatment initiation, GM 60 mg/kg q1d × 5, 10 mice",0
same,Median tumor weight,"[2]; Day 0 after treatment initiation, GM 60 mg/kg q1d × 5",117 mg
same,Median tumor weight,[2]; [19],100 mg
same,Median tumor weight,"[2]; Day 3 after treatment initiation, GM 60 mg/kg q1d × 5",162 mg
same,Median tumor weight,[2]; [20],162 mg
same,Median days to 2× doubling of tumor weight,[2]; GM 60 mg/kg q1d × 5,20.0 days
same,Animals with small tumors (20% and less) compared to median of untreated after 4-8 weeks of treatment,[2]; [25],0
same,Tumor complete regression after 56 days of treatment,[2]; [25],0
same,Median days to 2× doubling of tumor weight,[2]; [21],15.5 days
same,Animals with small tumors (20% and less) compared to median of untreated after 4-8 weeks of treatment,[2]; [22],1
same,Tumor complete regression after 56 days of treatment,[2]; [22],0
same,"Animals died, Total","[2]; GM 60 mg/kg q1d × 5, 10 mice",3
same,"Animals died, Total",[2]; [23],2
same,Mean survival time,[2]; GM 60 mg/kg q1d × 5,18.1 days
same,Mean survival time,[2]; [24],19.2 days
